Measured values taken from ChEMBL document CHEMBL3044809, “Design, synthesis, and fungicidal activities of new strobilurin derivatives” (2007).
Values after ≈ are worked out from the molar mass of the structure shown.

Tests used:
Assay type in all cases: functional
Fusarium graminearum = assay: Antifungal activity against Fusarium graminearum assessed as inhibition rate at 50 ug/mL
Colletotrichum gossypii = assay: Antifungal activity against Colletotrichum gossypii assessed as inhibition rate at 50 ug/mL
Botrytis = assay: Antifungal activity against Botrytis cinereapers assessed as inhibition rate at 50 ug/mL
Fusarium oxysporum = assay: Antifungal activity against Fusarium oxysporum assessed as inhibition rate at 50 ug/mL
Dothiorella gregaria = assay: Antifungal activity against Dothiorella gregaria assessed as inhibition rate at 50 ug/mL
Rhizoctonia solani = assay: Antifungal activity against Rhizoctonia solani assessed as inhibition rate at 50 ug/mL
Podosphaera fuliginea [1] = assay: Antifungal activity against Podosphaera fuliginea inoculated in inoculated in cucumber plant assessed as preventive fungicidal activity at 100 ug/mL measured after 7 days
[2] = tested on: Pseudoperonospora cubensis; assay: Antifungal activity against Pseudoperonospora cubensis inoculated in inoculated in cucumber plant assessed as preventive fungicidal activity at 25 ug/mL measured after 7 days
[3] = tested on: Pseudoperonospora cubensis; assay: Antifungal activity against Pseudoperonospora cubensis inoculated in inoculated in cucumber plant assessed as preventive fungicidal activity at 100 ug/mL measured after 7 days
[4] = tested on: Pseudoperonospora cubensis; assay: Antifungal activity against Pseudoperonospora cubensis inoculated in inoculated in cucumber plant assessed as preventive fungicidal activity measured after 7 days; settings: 168 h
[5] = tested on: Pseudoperonospora cubensis; assay: Antifungal activity against Pseudoperonospora cubensis inoculated in inoculated in cucumber plant assessed as preventive fungicidal activity at 50 ug/mL measured after 7 days
Podosphaera fuliginea [6] = assay: Antifungal activity against Podosphaera fuliginea inoculated in inoculated in cucumber plant assessed as preventive fungicidal activity at 50 ug/mL measured after 7 days
Podosphaera fuliginea [7] = assay: Antifungal activity against Podosphaera fuliginea inoculated in inoculated in cucumber plant assessed as preventive fungicidal activity at 25 ug/mL measured after 7 days
Podosphaera fuliginea [8] = assay: Antifungal activity against Podosphaera fuliginea inoculated in inoculated in cucumber plant assessed as preventive fungicidal activity measured after 7 days; settings: 168 h

Compound CO/C=C(/C(=O)OC)c1ccccc1CSc1cc(=O)c2ccccc2s1 has an inhibition at 50 µg/mL (Fusarium graminearum) of 53%, an inhibition at 50 µg/mL (Colletotrichum gossypii) of 52% and an inhibition at 50 µg/mL (Botrytis) of 18%. It also gave an inhibition at 50 µg/mL (Fusarium oxysporum) of 48%, an inhibition at 50 µg/mL (Dothiorella gregaria) of 14% and an inhibition at 50 µg/mL (Rhizoctonia solani) of 64%.
With CO/C=C(/C(=O)OC)c1ccccc1CSc1nc2nc(C)cc(C)n2n1 the inhibition at 50 µg/mL (Fusarium graminearum) was 47%, the inhibition at 50 µg/mL (Colletotrichum gossypii) was 39% and the inhibition at 50 µg/mL (Botrytis) was 7%. For the same compound, the inhibition at 50 µg/mL (Fusarium oxysporum) was 61%, the inhibition at 50 µg/mL (Dothiorella gregaria) was 78% and the inhibition at 50 µg/mL (Rhizoctonia solani) was 66%.
In the case of CO/C=C(/C(=O)OC)c1ccccc1CSc1nc2ccccc2o1, the inhibition at 50 µg/mL (Fusarium graminearum) is reported as 81%, the inhibition at 50 µg/mL (Colletotrichum gossypii) is reported as 83% and the inhibition at 50 µg/mL (Botrytis) is reported as 47%. It also gave an inhibition at 50 µg/mL (Fusarium oxysporum) of 69%, an inhibition at 50 µg/mL (Dothiorella gregaria) of 46% and an inhibition at 50 µg/mL (Rhizoctonia solani) of 78%.
Compound CO/C=C(/C(=O)OC)c1ccccc1CSc1nc2ccccc2s1 has an Activity (Podosphaera fuliginea [1]) of 100%, an Activity [2] of 62% and an inhibition at 50 µg/mL (Fusarium graminearum) of 74%. The Activity [3] was 100%, the inhibition at 50 µg/mL (Colletotrichum gossypii) was 86% and the EC90 [4] was 46.3 µg/mL (≈ 125 µM). It also gave an inhibition at 50 µg/mL (Botrytis) of 47%, an Activity [5] of 94% and an inhibition at 50 µg/mL (Fusarium oxysporum) of 69%. The inhibition at 50 µg/mL (Dothiorella gregaria) was 94%, the inhibition at 50 µg/mL (Rhizoctonia solani) was 87% and the Activity (Podosphaera fuliginea [6]) was 100%. It also gave an Activity (Podosphaera fuliginea [7]) of 100% and an EC90 (Podosphaera fuliginea [8]) of 6.17 µg/mL (≈ 16.6 µM).
For CO/N=C(/C(=O)OC)c1ccccc1CSc1cc(=O)c2ccccc2s1, the inhibition at 50 µg/mL (Fusarium graminearum) was 61%, the inhibition at 50 µg/mL (Colletotrichum gossypii) was 48% and the inhibition at 50 µg/mL (Botrytis) was 23%. For the same compound, the inhibition at 50 µg/mL (Fusarium oxysporum) was 44%, the inhibition at 50 µg/mL (Dothiorella gregaria) was 19% and the inhibition at 50 µg/mL (Rhizoctonia solani) was 73%.
In the case of CO/N=C(/C(=O)OC)c1ccccc1COc1ccccc1C [KRESOXIM-METHYL], the Activity (Podosphaera fuliginea [1]) is reported as 100%, the Activity [2] is reported as 27% and the inhibition at 50 µg/mL (Fusarium graminearum) is reported as 53%. The Activity [3] was 80%, the inhibition at 50 µg/mL (Colletotrichum gossypii) was 50% and the EC90 [4] was 155 µg/mL (≈ 494 µM). It also gave an inhibition at 50 µg/mL (Botrytis) of 50%, an Activity [5] of 56% and an inhibition at 50 µg/mL (Fusarium oxysporum) of 61%. The inhibition at 50 µg/mL (Dothiorella gregaria) was 82%, the inhibition at 50 µg/mL (Rhizoctonia solani) was 70% and the Activity (Podosphaera fuliginea [6]) was 100%. It also gave an Activity (Podosphaera fuliginea [7]) of 98% and an EC90 (Podosphaera fuliginea [8]) of 7.3 µg/mL (≈ 23.3 µM).
CO/C=C(/C(=O)OC)c1ccccc1CSc1nc2ccccc2[nH]1 gave an inhibition at 50 µg/mL (Fusarium graminearum) of 53%, an inhibition at 50 µg/mL (Colletotrichum gossypii) of 52% and an inhibition at 50 µg/mL (Botrytis) of 47%. For the same compound, the inhibition at 50 µg/mL (Fusarium oxysporum) was 45%, the inhibition at 50 µg/mL (Dothiorella gregaria) was 87% and the inhibition at 50 µg/mL (Rhizoctonia solani) was 78%.
CO/C=C(/C(=O)OC)c1ccccc1CSc1nc(C)cc(C)n1 was tested, and the Activity (Podosphaera fuliginea [1]) was 70%, the inhibition at 50 µg/mL (Fusarium graminearum) was 74% and the Activity [3] was 0%. The inhibition at 50 µg/mL (Colletotrichum gossypii) was 52%, the inhibition at 50 µg/mL (Botrytis) was 52% and the inhibition at 50 µg/mL (Fusarium oxysporum) was 79%. For the same compound, the inhibition at 50 µg/mL (Dothiorella gregaria) was 91%, the inhibition at 50 µg/mL (Rhizoctonia solani) was 83% and the Activity (Podosphaera fuliginea [6]) was 40%.
CO/C=C(/C(=O)OC)c1ccccc1CSc1nnc(-c2ccccc2)n1N gave an inhibition at 50 µg/mL (Fusarium graminearum) of 69%, an inhibition at 50 µg/mL (Colletotrichum gossypii) of 64% and an inhibition at 50 µg/mL (Botrytis) of 41%. The inhibition at 50 µg/mL (Fusarium oxysporum) was 76%, the inhibition at 50 µg/mL (Dothiorella gregaria) was 76% and the inhibition at 50 µg/mL (Rhizoctonia solani) was 84%.
CC(C)(C)C(=O)C(Oc1ccc(Cl)cc1)n1cncn1 (stereo unspecified) [TRIADIMEFON] gave an inhibition at 50 µg/mL (Fusarium graminearum) of 72%, an inhibition at 50 µg/mL (Colletotrichum gossypii) of 95% and an inhibition at 50 µg/mL (Botrytis) of 84%. For the same compound, the inhibition at 50 µg/mL (Fusarium oxysporum) was 86%, the inhibition at 50 µg/mL (Dothiorella gregaria) was 61% and the inhibition at 50 µg/mL (Rhizoctonia solani) was 90%.
CO/N=C(/C(=O)OC)c1ccccc1CSc1nc2ccccc2s1 showed an Activity (Podosphaera fuliginea [1]) of 100%, an Activity [2] of 39% and an inhibition at 50 µg/mL (Fusarium graminearum) of 81%. For the same compound, the Activity [3] was 84%, the inhibition at 50 µg/mL (Colletotrichum gossypii) was 75% and the EC90 [4] was 150 µg/mL (≈ 404 µM). The inhibition at 50 µg/mL (Botrytis) was 52%, the Activity [5] was 66% and the inhibition at 50 µg/mL (Fusarium oxysporum) was 74%. For the same compound, the inhibition at 50 µg/mL (Dothiorella gregaria) was 84%, the inhibition at 50 µg/mL (Rhizoctonia solani) was 82% and the Activity (Podosphaera fuliginea [6]) was 100%. The Activity (Podosphaera fuliginea [7]) was 97% and the EC90 (Podosphaera fuliginea [8]) was 9.6 µg/mL (≈ 25.8 µM).
CO/C=C(/C(=O)OC)c1ccccc1CSc1nnc(CSc2nc3nc(C)cc(C)n3n2)n1-c1ccccc1 showed an inhibition at 50 µg/mL (Fusarium graminearum) of 36%, an inhibition at 50 µg/mL (Colletotrichum gossypii) of 17% and an inhibition at 50 µg/mL (Botrytis) of 7%. It also gave an inhibition at 50 µg/mL (Fusarium oxysporum) of 40%, an inhibition at 50 µg/mL (Dothiorella gregaria) of 11% and an inhibition at 50 µg/mL (Rhizoctonia solani) of 37%.
With CO/C=C(/C(=O)OC)c1ccccc1CSc1nnc(CSc2nc3nc(C)cc(C)n3n2)s1 the inhibition at 50 µg/mL (Fusarium graminearum) was 44%, the inhibition at 50 µg/mL (Colletotrichum gossypii) was 39% and the inhibition at 50 µg/mL (Botrytis) was 14%. The inhibition at 50 µg/mL (Fusarium oxysporum) was 61%, the inhibition at 50 µg/mL (Dothiorella gregaria) was 69% and the inhibition at 50 µg/mL (Rhizoctonia solani) was 58%.
With CO/C=C(/C(=O)OC)c1ccccc1CSc1nnc(CSc2nc3nc(C)cc(C)n3n2)n1N the inhibition at 50 µg/mL (Fusarium graminearum) was 43%, the inhibition at 50 µg/mL (Colletotrichum gossypii) was 35% and the inhibition at 50 µg/mL (Botrytis) was 14%. For the same compound, the inhibition at 50 µg/mL (Fusarium oxysporum) was 44%, the inhibition at 50 µg/mL (Dothiorella gregaria) was 78% and the inhibition at 50 µg/mL (Rhizoctonia solani) was 73%.
With CO/C=C(/C(=O)OC)c1ccccc1CSc1nnc(N)s1 the inhibition at 50 µg/mL (Fusarium graminearum) was 40%, the inhibition at 50 µg/mL (Colletotrichum gossypii) was 39% and the inhibition at 50 µg/mL (Botrytis) was 11%. The inhibition at 50 µg/mL (Fusarium oxysporum) was 65%, the inhibition at 50 µg/mL (Dothiorella gregaria) was 55% and the inhibition at 50 µg/mL (Rhizoctonia solani) was 61%.
In the case of CO/N=C(/C(=O)OC)c1ccccc1CSc1nnc(CSc2nc3nc(C)cc(C)n3n2)o1, the inhibition at 50 µg/mL (Fusarium graminearum) is reported as 41%, the inhibition at 50 µg/mL (Colletotrichum gossypii) is reported as 36% and the inhibition at 50 µg/mL (Botrytis) is reported as 77%. The inhibition at 50 µg/mL (Fusarium oxysporum) was 63%, the inhibition at 50 µg/mL (Dothiorella gregaria) was 70% and the inhibition at 50 µg/mL (Rhizoctonia solani) was 88%.
CO/N=C(/C(=O)OC)c1ccccc1CSc1nc(C)cc(C)n1 showed an inhibition at 50 µg/mL (Fusarium graminearum) of 61%, an inhibition at 50 µg/mL (Colletotrichum gossypii) of 59% and an inhibition at 50 µg/mL (Botrytis) of 27%. For the same compound, the inhibition at 50 µg/mL (Fusarium oxysporum) was 76%, the inhibition at 50 µg/mL (Dothiorella gregaria) was 82% and the inhibition at 50 µg/mL (Rhizoctonia solani) was 73%.
CO/N=C(/C(=O)OC)c1ccccc1CSc1nc2nc(C)cc(C)n2n1 showed an inhibition at 50 µg/mL (Fusarium graminearum) of 50%, an inhibition at 50 µg/mL (Colletotrichum gossypii) of 35% and an inhibition at 50 µg/mL (Botrytis) of 14%. For the same compound, the inhibition at 50 µg/mL (Fusarium oxysporum) was 50%, the inhibition at 50 µg/mL (Dothiorella gregaria) was 78% and the inhibition at 50 µg/mL (Rhizoctonia solani) was 69%.
For CO/C=C(/C(=O)OC)c1ccccc1CSc1nn2c(C)nnc2s1, the inhibition at 50 µg/mL (Fusarium graminearum) was 53%, the inhibition at 50 µg/mL (Colletotrichum gossypii) was 50% and the inhibition at 50 µg/mL (Botrytis) was 41%. It also gave an inhibition at 50 µg/mL (Fusarium oxysporum) of 59%, an inhibition at 50 µg/mL (Dothiorella gregaria) of 82% and an inhibition at 50 µg/mL (Rhizoctonia solani) of 83%.
CO/C=C(/C(=O)OC)c1ccccc1CSc1nnc(CSc2nc3nc(C)cc(C)n3n2)o1 showed an inhibition at 50 µg/mL (Fusarium graminearum) of 36%, an inhibition at 50 µg/mL (Colletotrichum gossypii) of 39% and an inhibition at 50 µg/mL (Botrytis) of 36%. For the same compound, the inhibition at 50 µg/mL (Fusarium oxysporum) was 36%, the inhibition at 50 µg/mL (Dothiorella gregaria) was 73% and the inhibition at 50 µg/mL (Rhizoctonia solani) was 73%.
Compound CO/N=C(/C(=O)OC)c1ccccc1CSc1nc2ccccc2[nH]1 has an Activity (Podosphaera fuliginea [1]) of 0%, an inhibition at 50 µg/mL (Fusarium graminearum) of 69% and an Activity [3] of 0%. It also gave an inhibition at 50 µg/mL (Colletotrichum gossypii) of 82%, an inhibition at 50 µg/mL (Botrytis) of 77% and an inhibition at 50 µg/mL (Fusarium oxysporum) of 72%. The inhibition at 50 µg/mL (Dothiorella gregaria) was 87% and the inhibition at 50 µg/mL (Rhizoctonia solani) was 90%.
CO/N=C(/C(=O)OC)c1ccccc1CSc1nnc(CSc2nc3nc(C)cc(C)n3n2)s1 was tested, and the inhibition at 50 µg/mL (Fusarium graminearum) was 45%, the inhibition at 50 µg/mL (Colletotrichum gossypii) was 32% and the inhibition at 50 µg/mL (Botrytis) was 64%. It also gave an inhibition at 50 µg/mL (Fusarium oxysporum) of 54%, an inhibition at 50 µg/mL (Dothiorella gregaria) of 58% and an inhibition at 50 µg/mL (Rhizoctonia solani) of 78%.
